The text below walks through data of US8518952B2, “6 substituted 2-heterocyclylamino pyrazine compounds as CHK-1 inhibitors” (Pfizer Inc., priority 2008, dated 2013).

Read-outs that look alike come from different tables or passages of the source. Bounds are passed on as bounds.

In one assay the target is T1, CHK1 (kinase domain) (Homo sapiens, UniProt O14757).
T1 construct: a solution containing 1 nM of CHK1 (kinase domain)
T1 sequence (O14757 9-265 limits assumed): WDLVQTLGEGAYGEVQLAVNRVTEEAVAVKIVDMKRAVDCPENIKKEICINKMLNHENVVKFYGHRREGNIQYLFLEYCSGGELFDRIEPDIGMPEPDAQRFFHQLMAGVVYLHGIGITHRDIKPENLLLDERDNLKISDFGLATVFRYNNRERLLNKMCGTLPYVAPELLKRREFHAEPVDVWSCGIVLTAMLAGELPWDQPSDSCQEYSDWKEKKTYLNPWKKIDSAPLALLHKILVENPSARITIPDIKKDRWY
The experiment in a line: CHK1 Ki determination, spectrophotometric coupled (pyruvate kinase/lactate dehydrogenase) assay. Conditions: CHK-1 kinase domain; for Ki: 150 uM ATP, 125 uM Syntide 2; for percent inhibition (where no Ki data is available): inhibitor concentration not given. Format: biochemical. The procedure, abridged: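 Ki values, or % inhibition where no Ki was obtained, come from a tight-binding fit that uses active enzyme concentration and the ATP Km. Rates were followed as NADH loss at 340 nm, with ADP production coupled via pyruvate kinase and lactate dehydrogenase. Reactions with ATP (150 uM) and Syntide 2 (125 uM) were started after the CHK1 kinase domain had stood with inhibitor for 15 min.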

A further assay relates to HeLa cells. Nature of the assay: Histone H3 (Ser10) phosphorylation ELISA, abrogation of camptothecin-induced G2 arrest (CHK-1 cellular assay). It is filed as cell-based. As to conditions: HeLa cells, camptothecin 8 hrs, then compound with nocodozole 16 hours, read-out: EC50. The procedure, abridged: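 HeLa cells, or MiaPaCa-2 where marked, received camptothecin for 8 h, then compound with nocodazole for 16 h. Ser10-phosphorylated histone H3 in lysates was measured by ELISA with a biotinylated antibody, streptavidin-HRP and TMB. EC50 came from four-parameter sigmoid fits.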
Background: An ELISA detects its analyte on a solid surface through an enzyme-linked reagent.

`C[C@@H]1CNC[C@@H]1Nc1cncc(-c2cnn3ccccc23)n1` [Example 119, N-[(3R,4R)-4-methylpyrrolidin-3-yl]-6-pyrazolo[1,5-a]pyridin-3-ylpyrazin-2-amine]: the Ki on CHK1 (kinase domain) was determined as 5.38 nM. Also, in the assay on HeLa cells (Homo sapiens, HeLa), the EC50 was 26.7 nM.
For the compound `c1cnc2c(-c3cncc(N[C@@H]4CCNC4)n3)cnn2c1` [Example 121, 6-pyrazolo[1,5-a]pyrimidin-3-yl-N-[(3R)-pyrrolidin-3-yl]pyrazin-2-amine], the “percent inhibition (where no Ki data is available)” value at CHK1 (kinase domain) came out at 16.5%^. Also, the EC50 with HeLa cells (Homo sapiens, HeLa) was at least 10000 nM.
The compound `CCC(COC)Oc1ccn2c(-c3cncc(N[C@@H]4CCCNC4)n3)cnc2c1` (stereo partly drawn) [Example 122, 6-{7-[1-(methoxymethyl)propoxy]imidazo[1,2-a]pyridin-3-yl}-N-[(3R)-piperidin-3-yl]pyrazin-2-amine] displayed a Ki on CHK1 (kinase domain) of 11 nM. For the same compound, the EC50 with HeLa cells (Homo sapiens, HeLa) is 1060 nM.
On the same counts, the results for `COc1ccn2c(-c3cncc(N[C@@H]4C[C@@H]5CN[C@H]4C5)n3)cnc2c1` [Example 124, (1S,4R,6R)-N-[6-(7-methoxyimidazo[1,2-a]pyridin-3-yl)pyrazin-2-yl]-2-azabicyclo[2.2.1]heptan-6-amine] are 2.29 nM and at least 10000 nM.
Consider `Fc1ccc2ncc(-c3cncc(N[C@@H]4C[C@@H]5CN[C@H]4C5)n3)n2c1` [Example 126, (1S,4R,6R)-N-[6-(6-fluoroimidazo[1,2-a]pyridin-3-yl)pyrazin-2-yl]-2-azabicyclo[2.2.1]heptan-6-amine], for which, on CHK1 (kinase domain), the Ki was found to be 5.88 nM. In addition, in the assay on HeLa cells (Homo sapiens, HeLa), the EC50 was found to be 140 nM.
The matching figures for `CC(C)c1cn2c(-c3cncc(N[C@@H]4C[C@@H]5CN[C@H]4C5)n3)cnc2s1` [Example 127, (1S,4R,6R)-N-[6-(2-isopropylimidazo[2,1-b][1,3]thiazol-5-yl)pyrazin-2-yl]-2-azabicyclo[2.2.1]heptan-6-amine]: 8.91 nM and 1060 nM.
`CCc1cn2c(-c3cncc(N[C@@H]4C[C@@H]5CN[C@H]4C5)n3)cnc2s1` [Example 128, (1S,4R,6R)-N-[6-(2-ethylimidazo[2,1-b][1,3]thiazol-5-yl)pyrazin-2-yl]-2-azabicyclo[2.2.1]heptan-6-amine] yielded a Ki at CHK1 (kinase domain) of 1.79 nM. Besides, the EC50 in the assay on HeLa cells (Homo sapiens, HeLa) is 172 nM.
Turning to `C[C@H]1NCCC[C@@H]1Nc1cncc(-c2cnc3ccccn23)n1` [Example 132, 6-imidazo[1,2-a]pyridin-3-yl-N-[(2R,3S)-2-methylpiperidin-3-yl]pyrazin-2-amine], the “percent inhibition (where no Ki data is available)” value at CHK1 (kinase domain) was 18.3%^. For the same compound, the EC50 in the assay on HeLa cells (Homo sapiens, HeLa) was at least 10000 nM.
Turning to `Cc1cn2c(-c3cncc(N[C@H]4CCCN[C@@H]4C)n3)cnc2s1` [Example 134, 6-(2-methylimidazo[2,1-b][1,3]thiazol-5-yl)-N-[(2R,3S)-2-methylpiperidin-3-yl]pyrazin-2-amine], on CHK1 (kinase domain), the “percent inhibition (where no Ki data is available)” value was 0%. Further, the EC50 in the assay on HeLa cells (Homo sapiens, HeLa) is at least 10000 nM.
As to `CC(Oc1ccn2c(-c3cncc(N[C@@H]4CCNC4)n3)cnc2c1)C(F)(F)F` (stereo partly drawn) [Example 136, N-[(3R)-pyrrolidin-3-yl]-6-[7-(2,2,2-trifluoro-1-methylethoxy)imidazo[1,2-a]pyridin-3-yl]pyrazin-2-amine], the Ki at CHK1 (kinase domain) was 52 nM. Moreover, the EC50 with HeLa cells (Homo sapiens, HeLa) turned out to be 966 nM.
In turn, `C[C@@H]1NCCC[C@@H]1Nc1cncc(-c2cnc3ccccn23)n1` [Example 139, 6-imidazo[1,2-a]pyridin-3-yl-N-[(2S,3S)-2-methylpiperidin-3-yl]pyrazin-2-amine] had a Ki at CHK1 (kinase domain) of 9.7 nM. Further, in the assay on HeLa cells (Homo sapiens, HeLa), the EC50 is at least 10000 nM.
Compound `Cc1cn2c(-c3cncc(N[C@@H]4CNC[C@@H]4C)n3)cnc2s1` [Example 140, 6-(2-methylimidazo[2,1-b][1,3]thiazol-5-yl)-N-[(3S,4S)-4-methylpyrrolidin-3-yl]pyrazin-2-amine] came in with a Ki at CHK1 (kinase domain) of 1.07 nM. In the assay with HeLa cells (Homo sapiens, HeLa), the EC50 came out at 19.2 nM.
For `C[C@H]1CNC[C@H]1Nc1cncc(-c2cnc3ccc(F)cn23)n1` [Example 141, 6-(6-fluoroimidazo[1,2-a]pyridin-3-yl)-N-[(3S,4S)-4-methylpyrrolidin-3-yl]pyrazin-2-amine], on CHK1 (kinase domain), the Ki amounted to 10 nM. Further, the EC50 in the assay with HeLa cells (Homo sapiens, HeLa) amounted to 77.8 nM.
Consider `C[C@@H]1C[C@@H](Nc2cncc(-c3cnn4cc(Cl)ccc34)n2)CN1` [Example 143, 6-(6-chloropyrazolo[1,5-a]pyridin-3-yl)-N-[(3R,5R)-5-methylpyrrolidin-3-yl]pyrazin-2-amine], for which the Ki on CHK1 (kinase domain) turned out to be 1.11 nM. The EC50 with HeLa cells (Homo sapiens, HeLa) amounted to 119 nM.
On to `C[C@@H]1C[C@@H](Nc2cncc(-c3cnn4ccccc34)n2)CN1` [Example 145, N-[(3R,5R)-5-methylpyrrolidin-3-yl]-6-pyrazolo[1,5-a]pyridin-3-ylpyrazin-2-amine], for which the Ki on CHK1 (kinase domain) is 8.1 nM. For the same compound, the EC50 in the assay with HeLa cells (Homo sapiens, HeLa) was 389 nM.
`C[C@@H]1CC[C@@H](Nc2cncc(-c3cnc4cnccn34)n2)CN1` [Example 146, 6-imidazo[1,2-a]pyrazin-3-yl-N-[(3R,6R)-6-methylpiperidin-3-yl]pyrazin-2-amine] registered a Ki on CHK1 (kinase domain) of 19 nM. In the assay on HeLa cells (Homo sapiens, HeLa), the EC50 came to 493 nM.
On CHK1 (kinase domain), `c1cn2c(-c3cncc(N[C@@H]4C[C@@H]5CN[C@H]4C5)n3)cnc2cn1` [Example 147, (1S,4R,6R)-N-(6-imidazo[1,2-a]pyrazin-3-ylpyrazin-2-yl)-2-azabicyclo[2.2.1]heptan-6-amine] yielded a Ki of 12.9 nM. Besides, the EC50 in the assay with HeLa cells (Homo sapiens, HeLa) was found to be 295 nM.
Regarding `CC(C)(C)CCOc1ccn2c(-c3cncc(N[C@@H]4CCCNC4)n3)cnc2c1` [Example 148, 6-[7-(3,3-dimethylbutoxy)imidazo[1,2-a]pyridin-3-yl]-N-[(3R)-piperidin-3-yl]pyrazin-2-amine], the “percent inhibition (where no Ki data is available)” value on CHK1 (kinase domain) is 104%^. The EC50 in the assay with HeLa cells (Homo sapiens, HeLa) was at least 10000 nM.
On to `CCOc1ccc2ncn(-c3cncc(N[C@@H]4CCCNC4)n3)c2c1` [Example 149, 6-(6-ethoxy-1H-benzimidazol-1-yl)-N-[(3R)-piperidin-3-yl]pyrazin-2-amine], for which the Ki at CHK1 (kinase domain) was 6.77 nM. In addition, in the assay on HeLa cells (Homo sapiens, HeLa), the EC50 was at least 10000 nM.
The matching figures for `CC(C)Oc1ccc2ncn(-c3cncc(N[C@@H]4CCCNC4)n3)c2c1` [Example 150, 6-(6-isopropoxy-1H-benzimidazol-1-yl)-N-[(3R)-piperidin-3-yl]pyrazin-2-amine]: 5.91 nM and 284 nM.
`OCc1ccc2ncc(-c3cncc(N[C@@H]4CCCNC4)n3)n2c1` [Example 151, (3-{6-[(3R)-piperidin-3-ylamino]pyrazin-2-yl}imidazo[1,2-a]pyridin-6-yl)methanol] yielded a Ki on CHK1 (kinase domain) of 1.07 nM. In the assay with HeLa cells (Homo sapiens, HeLa), the concentration for a half-maximal effect (EC50) was determined as 78.7 nM.
On the same counts, the results for `COc1ccn2c(-c3cncc(N[C@H]4CNC[C@H]4c4ccccc4)n3)cnc2c1` [Example 152, 6-(7-methoxyimidazo[1,2-a]pyridin-3-yl)-N-[(3R,4R)-4-phenylpyrrolidin-3-yl]pyrazin-2-amine] are 1.47 nM and 5.6 nM.
Compound `CO[C@H]1CNC[C@H](Nc2cncc(-c3cnc4ccccn34)n2)C1` [Example 156, 6-(imidazo[1,2-a]pyridin-3-yl)-N-[(3R,5R)-5-methoxypiperidin-3-yl]pyrazin-2-amine] came in with a Ki on CHK1 (kinase domain) of 28.4 nM. Moreover, the EC50 in the assay with HeLa cells (Homo sapiens, HeLa) came out at 314 nM.
Turning to `c1ccn2c(-c3cncc(NC4CC5CNC4C5)n3)cnc2c1` (stereo not drawn) [Example 159, N-[6-(imidazo[1,2-a]pyridin-3-yl)pyrazin-2-yl]-2-azabicyclo[2.2.1]heptan-6-amine], the affinity on CHK1 (kinase domain), expressed as Ki, was 20.8 nM. Besides, the EC50 in the assay on HeLa cells (Homo sapiens, HeLa) was determined as 166 nM.
On CHK1 (kinase domain), `CC(C)c1cn2c(-c3cncc(N[C@@H]4CCCN[C@@H]4C)n3)cnc2s1` [Example 165, N-[(2R,3R)-2-methylpiperidin-3-yl]-6-[2-(propan-2-yl)imidazo[2,1-b][1,3]thiazol-5-yl]pyrazin-2-amine] gave a Ki of 1.09 nM. Further, in the assay on HeLa cells, the EC50 amounted to 123 nM.
The compound `CCc1cn2c(-c3cncc(N[C@@H]4CCCN[C@@H]4C)n3)cnc2s1` [Example 166, 6-(2-ethylimidazo[2,1-b][1,3]thiazol-5-yl)-N-[(2R,3R)-2-methylpiperidin-3-yl]pyrazin-2-amine] yielded a Ki on CHK1 (kinase domain) of 4.79 nM. For the same compound, the EC50 in the assay on HeLa cells worked out at 123 nM.
`C[C@@H]1NCCC[C@H]1Nc1cncc(-c2cnc3cnccn23)n1` [Example 167, 6-(imidazo[1,2-a]pyrazin-3-yl)-N-[(2S,3R)-2-methylpiperidin-3-yl]pyrazin-2-amine] came in with a Ki at CHK1 (kinase domain) of 101 nM. In addition, the EC50 in the assay on HeLa cells (Homo sapiens, HeLa) is at least 10000 nM.
The matching figures for `C[C@@H]1NCCC[C@H]1Nc1cncc(-c2cnc3ccc(F)cn23)n1` [Example 168, 6-(6-fluoroimidazo[1,2-a]pyridin-3-yl)-N-[(2S,3R)-2-methylpiperidin-3-yl]pyrazin-2-amine]: 22.7 nM and at least 10000 nM.
As for `CC(C)c1cn2c(-c3cncc(N[C@@H]4CCCN[C@H]4C)n3)cnc2s1` [Example 169, N-[(2S,3R)-2-methylpiperidin-3-yl]-6-[2-(propan-2-yl)imidazo[2,1-b][1,3]thiazol-5-yl]pyrazin-2-amine], on CHK1 (kinase domain), the “percent inhibition (where no Ki data is available)” value was determined as 45.9%^. In the assay on HeLa cells, the EC50 is 1850 nM.
At CHK1 (kinase domain), `CCc1cn2c(-c3cncc(N[C@@H]4CCCN[C@H]4C)n3)cnc2s1` [Example 170, 6-(2-ethylimidazo[2,1-b][1,3]thiazol-5-yl)-N-[(2S,3R)-2-methylpiperidin-3-yl]pyrazin-2-amine] came in with a Ki of 11.1 nM. For the same compound, the EC50 in the assay with HeLa cells amounted to 414 nM.

Usually Ki stands for a dissociation constant, usually derived from enzyme kinetics or from competition with a known ligand. Higher therefore signals weaker binding. By EC50 is commonly meant the concentration that produces a half-maximal response.
